Reference: US6616945B1, “Method for making a pharmaceutical formulation” (Leiras Oy, priority 1997, dated 2003)

Assay: X-ray diffraction (XRD) study of crystallinity / amorphous content
Assay type: physicochemical
Method: FIG. 1 presents the X-ray diffraction (XRD) patterns of three salbutamol samples.
In FIG. 1, the XRD patterns of the three salbutamol samples, which were each treated differently before analysis is shown as follows:
Also the initial mean particle size had been increased close to the upper acceptable limit.
Samples of some months ago micronized material were suspended in n-heptane and stirred 7 and 16 hours at 70° C., followed by drying.
Specific surface area and the energy for moisture absorption during transfer from 0 to 80% RH were metered: […]

change in amount of amorphous matter (micronized drug stored 10 hors at 40° C. and 50% RH): clear decrease
crystallinity by XRD (stirred 7 hours at 50° C. as n-heptane suspension): slightly less
crystallinity by XRD (stirred 7 hours at 60° C. as n-heptane suspension): practically total crystallinity
crystallinity by XRD (stirred 7 hours at 70° C. as n-heptane suspension): practically total crystallinity
Substance: salbutamol sulphate
amorphous content by XRD (untreated micronized sample): a detectable amount of the drug was amorphous
